Source: ChEMBL document CHEMBL1629466, “Synthesis and biological activity of some antitumor active derivatives from glycyrrhetinic acid” (Eur J Med Chem, 2010)
Calls of active or inactive are those of the source. The rule behind the calls is not given here.

Assays:
Format in all cases: functional, cell-based
[1] = Cytotoxicity against human Lipo cells after 96 hrs by sulforhodamine B assay
[2] = Cytotoxicity against human A253 cells after 96 hrs by sulforhodamine B assay
SW480 = test: Cytotoxicity against human SW480 cells after 96 hrs by sulforhodamine B assay
SW-1736 = test: Cytotoxicity against human SW1736 cells after 96 hrs by sulforhodamine B assay
HT-29 = test: Cytotoxicity against human HT-29 cells after 96 hrs by sulforhodamine B assay
A2780 [3] = test: Cytotoxicity against human A2780 cells after 96 hrs by sulforhodamine B assay
[4] = Cytotoxicity against human 518A2 cells after 96 hrs by sulforhodamine B assay
A549 = test: Cytotoxicity against human A549 cells after 96 hrs by sulforhodamine B assay
8505C = test: Cytotoxicity against human 8505C cells after 96 hrs by sulforhodamine B assay
DLD-1 = test: Cytotoxicity against human DLD1 cells after 96 hrs by sulforhodamine B assay
HCT-116 = test: Cytotoxicity against human HCT116 cells after 96 hrs by sulforhodamine B assay
MCF7 = test: Cytotoxicity against human MCF7 cells after 96 hrs by sulforhodamine B assay
FaDu = test: Cytotoxicity against human FADU cells after 96 hrs by sulforhodamine B assay
HCT-8 = test: Cytotoxicity against human HCT8 cells after 96 hrs by sulforhodamine B assay
A-431 [5] = test: Induction of apoptosis in human A431 cells at IC90 concentration after 24 hrs by trypan blue exclusion assay
A-431 [6] = test: Induction of apoptosis in human A431 cells assessed as DNA fragmentation at IC90 concentration after 24 hrs by gel electrophoresis analysis
A2780 [7] = test: Induction of apoptosis in human A2780 cells at IC90 concentration after 24 hrs by trypan blue exclusion assay
A2780 [8] = test: Induction of apoptosis in human A2780 cells assessed as DNA fragmentation at IC90 concentration after 24 hrs by gel electrophoresis analysis

Row | Compound | IC50 [1] [µmol] | IC50 [2] [µmol] | IC50 (SW480) [µmol] | IC50 (SW-1736) [µmol] | IC50 (HT-29) [µmol] | IC50 (A2780 [3]) [µmol] | IC50 [4] [µmol] | IC50 (A549) [µmol] | IC50 (8505C) [µmol] | IC50 (DLD-1) [µmol] | IC50 (HCT-116) [µmol] | IC50 (MCF7) [µmol] | IC50 (FaDu) [µmol] | IC50 (HCT-8) [µmol] | Activity (A-431 [5]) | Activity (A-431 [6]) | Activity (A2780 [7]) | Activity (A2780 [8])
1 | COC(=O)[C@@]1(C)CC[C@]2(C)CC[C@]3(C)C(=CC(=O)[C@@H]4[C@@]5(C)CC[C@H](OC(=O)CCl)C(C)(C)[C@@H]5CC[C@]43C)[C@@H]2C1 | 14.55 | 6.19 | 8.92 | 3.14 | 5.34 | 6.01 | 5.24 | 8.39 | 15.86 | 6.13 | 5.13 | 6.69 | 12.44 | 3.97 | – | – | – | –
2 | COC(=O)[C@@]1(C)CC[C@]2(C)CC[C@]3(C)C(=CC(=O)[C@@H]4[C@@]5(C)CC[C@H](OC(=O)CNCCCCN)C(C)(C)[C@@H]5CC[C@]43C)[C@@H]2C1 | 2.57 | 2.56 | 2.54 | 3.3 | 1.69 | 2.43 | 2.55 | 3.31 | 2.12 | 2.66 | 2.41 | 2.45 | 3.51 | 1.51 | – | – | – | –
3 | COC(=O)[C@@]1(C)CC[C@]2(C)CC[C@]3(C)C(=CC(=O)[C@@H]4[C@@]5(C)CC[C@H](OC(=O)CNCCCN)C(C)(C)[C@@H]5CC[C@]43C)[C@@H]2C1 | 3.89 | 3.64 | 3.68 | 6.05 | 2.9 | 4.39 | 3.79 | 5.15 | 3.37 | 4.39 | 4.3 | 3.55 | 5.57 | 2.37 | – | – | – | –
4 | COC(=O)[C@@]1(C)CC[C@]2(C)CC[C@]3(C)C(=CC(=O)[C@@H]4[C@@]5(C)CC[C@H](OC(=O)CNCCCCCCCCN)C(C)(C)[C@@H]5CC[C@]43C)[C@@H]2C1 | 4.36 | 3.01 | 3.93 | 4.09 | 2.76 | 2.8 | 3.49 | 4.08 | 3.35 | 3.96 | 3.53 | 3.89 | 4.26 | 2.92 | – | – | – | –
5 | CC1(C)[C@@H](OC(=O)CCl)CC[C@]2(C)[C@H]3C(=O)C=C4[C@@H]5C[C@@](C)(C(=O)O)CC[C@]5(C)CC[C@@]4(C)[C@]3(C)CC[C@@H]12 | 25.39 | 25.54 | 25.91 | 16.42 | 16.91 | 23.77 | 25.43 | 24.8 | 26.08 | 17.36 | 14.41 | 25.11 | 23.56 | 13.39 | – | – | – | –
6 | COC(=O)[C@@]1(C)CC[C@]2(C)CC[C@]3(C)C(=CC(=O)[C@@H]4[C@@]5(C)CC[C@H](O)C(C)(C)[C@@H]5CC[C@]43C)[C@@H]2C1 | 20.47 | 19.42 | 16.08 | 34.87 | 27.54 | 25.54 | 27.54 | 23.5 | 26.07 | 26.12 | 22.1 | 22.14 | 23.41 | 24.36 | – | – | – | –
7 | COC(=O)[C@@]1(C)CC[C@]2(C)CC[C@]3(C)C(=CC(=O)[C@@H]4[C@@]5(C)CC[C@H](OC(=O)CNCCCCCCCN)C(C)(C)[C@@H]5CC[C@]43C)[C@@H]2C1 | 1.44 | 1.74 | 2.24 | 2.24 | 0.86 | 1.14 | 1.27 | 2.21 | 2.13 | 1.25 | 1.7 | 0.98 | 2.2 | 0.89 | – | – | – | –
8 | COC(=O)[C@@]1(C)CC[C@]2(C)CC[C@]3(C)C(=CC(=O)[C@@H]4[C@@]5(C)CC[C@H](OC(=O)CNCCCCCCCCCN)C(C)(C)[C@@H]5CC[C@]43C)[C@@H]2C1 | 5.48 | 4.65 | 5.74 | 3.3 | 2.06 | 3.3 | 3.12 | 2.23 | 6.18 | 4.5 | 3.44 | 3.33 | 5.54 | 2.42 | – | – | – | –
9 | COC(=O)[C@@]1(C)CC[C@]2(C)CC[C@]3(C)C(=CC(=O)[C@@H]4[C@@]5(C)CC[C@H](OC(=O)CNCCCCCCCCCCN)C(C)(C)[C@@H]5CC[C@]43C)[C@@H]2C1 | 6.93 | 5.48 | 4.73 | 3.73 | 2.73 | 3.63 | 4.33 | 5.16 | 7.6 | 5.53 | 3.86 | 2.68 | 5.65 | 4.07 | – | – | – | –
10 | COC(=O)[C@@]1(C)CC[C@]2(C)CC[C@]3(C)C(=CC(=O)[C@@H]4[C@@]5(C)CC[C@H](OC(=O)CNCCCCCN)C(C)(C)[C@@H]5CC[C@]43C)[C@@H]2C1 | 1.93 | 2.27 | 1.91 | 2.69 | 1.28 | 2 | 2.02 | 2.52 | 1.78 | 2.4 | 2.19 | 1.79 | 3.3 | 1.38 | – | – | – | –
11 | COC(=O)[C@@]1(C)CC[C@]2(C)CC[C@]3(C)C(=CC(=O)[C@@H]4[C@@]5(C)CC[C@H](OC(=O)CNCCCCCCN)C(C)(C)[C@@H]5CC[C@]43C)[C@@H]2C1 | 1.59 | 1.12 | 2.25 | 1.61 | 0.59 | 1.36 | 1.09 | 1.59 | 1.68 | 0.91 | 1.17 | 1.17 | 1.78 | 0.62 | Active | Active | Active | Active
12 | CC1(C)[C@@H](O)CC[C@]2(C)[C@H]3C(=O)C=C4[C@@H]5C[C@@](C)(C(=O)O)CC[C@]5(C)CC[C@@]4(C)[C@]3(C)CC[C@@H]12 [ENOXOLONE] | 81.44 | 80.78 | 86.8 | 76.93 | 80.09 | 74.57 | 83.92 | 82.76 | 86.5 | 81.21 | 78.83 | 84.7 | 84.55 | 78.85 | – | – | – | –
